Results: ChEMBL document CHEMBL1909294, “Translating clinical findings into knowledge in drug safety evaluation--drug induced liver injury prediction system (DILIps)” (PLoS Comput Biol, 2011)

What was measured:
Hepatotoxicity [1] = test system: Hepatotoxicity;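 on HepSE Combined Scores: combined hepatic side effect score as listed in the training data of the Drug Induced Liver Injury Prediction System (DILIps)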;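 on HepSE cholecystitis: Cholecystitis-related hepatic side effect score drawn from the DILIps (drug-induced liver injury prediction) training data set; call rule not given here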;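 on HepSE cirrhosis: cirrhosis hepatic side effect score taken from the DILIps (drug-induced liver injury prediction) training set; call rule not given here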; on HepSE hepatic failure: call rule not given here;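 on HepSE hepatic necrosis: score of hepatic side effects for hepatic necrosis, drawn from the training data of DILIps, a prediction system for drug-induced liver injury; call rule not given here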; on HepSE liver disease: call rule not given here;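 on HepSE liver function tests abnormal: hepatic side effect score taken from the DILIps (drug-induced liver injury prediction system) training data, here covering abnormal liver function test findings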
Hepatotoxicity [2] = test system: Hepatotoxicity; remark: listed apart in the source;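 on HepSE Combined Scores: combined hepatic side effect score as listed in the training data of the Drug Induced Liver Injury Prediction System (DILIps)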;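 on HepSE cholecystitis: Cholecystitis-related hepatic side effect score drawn from the DILIps (drug-induced liver injury prediction) training data set; call rule not given here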;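 on HepSE cirrhosis: cirrhosis hepatic side effect score taken from the DILIps (drug-induced liver injury prediction) training set; call rule not given here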; on HepSE hepatic failure: call rule not given here;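 on HepSE hepatic necrosis: score of hepatic side effects for hepatic necrosis, drawn from the training data of DILIps, a prediction system for drug-induced liver injury; call rule not given here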; on HepSE liver disease: call rule not given here;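 on HepSE liver function tests abnormal: hepatic side effect score taken from the DILIps (drug-induced liver injury prediction system) training data, here covering abnormal liver function test findings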
Hepatotoxicity [3] = test system: Hepatotoxicity; remark: listed apart in the source;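 on HepSE Combined Scores: combined hepatic side effect score as listed in the training data of the Drug Induced Liver Injury Prediction System (DILIps)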;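 on HepSE cholecystitis: Cholecystitis-related hepatic side effect score drawn from the DILIps (drug-induced liver injury prediction) training data set; call rule not given here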;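 on HepSE cirrhosis: cirrhosis hepatic side effect score taken from the DILIps (drug-induced liver injury prediction) training set; call rule not given here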; on HepSE hepatic failure: call rule not given here;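 on HepSE hepatic necrosis: score of hepatic side effects for hepatic necrosis, drawn from the training data of DILIps, a prediction system for drug-induced liver injury; call rule not given here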; on HepSE liver disease: call rule not given here;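 on HepSE liver function tests abnormal: hepatic side effect score taken from the DILIps (drug-induced liver injury prediction system) training data, here covering abnormal liver function test findings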
Hepatotoxicity [4] = test system: Hepatotoxicity; remark: listed apart in the source;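 on HepSE Combined Scores: combined hepatic side effect score as listed in the training data of the Drug Induced Liver Injury Prediction System (DILIps)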;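 on HepSE cholecystitis: Cholecystitis-related hepatic side effect score drawn from the DILIps (drug-induced liver injury prediction) training data set; call rule not given here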;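 on HepSE cirrhosis: cirrhosis hepatic side effect score taken from the DILIps (drug-induced liver injury prediction) training set; call rule not given here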; on HepSE hepatic failure: call rule not given here;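 on HepSE hepatic necrosis: score of hepatic side effects for hepatic necrosis, drawn from the training data of DILIps, a prediction system for drug-induced liver injury; call rule not given here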; on HepSE liver disease: call rule not given here;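 on HepSE liver function tests abnormal: hepatic side effect score taken from the DILIps (drug-induced liver injury prediction system) training data, here covering abnormal liver function test findings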
Hepatotoxicity [5] = test system: Hepatotoxicity; remark: listed apart in the source; on HepSE hepatic failure: call rule not given here; on HepSE liver disease: call rule not given here
Hepatotoxicity [6] = test system: Hepatotoxicity; remark: listed apart in the source; on HepSE hepatic failure: call rule not given here; on HepSE liver disease: call rule not given here
Hepatotoxicity [7] = test system: Hepatotoxicity; remark: listed apart in the source
Hepatotoxicity [8] = test system: Hepatotoxicity; remark: listed apart in the source
Hepatotoxicity [9] = test system: Hepatotoxicity; remark: listed apart in the source
Hepatotoxicity [10] = test system: Hepatotoxicity; remark: listed apart in the source
Hepatotoxicity [11] = test system: Hepatotoxicity; remark: listed apart in the source
Hepatotoxicity [12] = test system: Hepatotoxicity; remark: listed apart in the source
Hepatotoxicity [13] = test system: Hepatotoxicity; remark: listed apart in the source
Hepatotoxicity [14] = test system: Hepatotoxicity; remark: listed apart in the source

Structure (SMILES)	HepSE_hepatic necrosis (Hepatotoxicity [1])	HepSE_hepatitis (Hepatotoxicity [2])	HepSE_cholecystitis (Hepatotoxicity [3])	HepSE_Combined Scores (Hepatotoxicity [4])	HepSE_liver disease (Hepatotoxicity [5])	HepSE_hepatic failure (Hepatotoxicity [6])	HepSE_liver function tests abnormal (Hepatotoxicity [7])	HepSE_cirrhosis (Hepatotoxicity [8])	HepSE_hepatomegaly (Hepatotoxicity [9])	HepSE_jaundice (Hepatotoxicity [10])	HepSE_elevated liver function tests (Hepatotoxicity [11])	HepSE_cholelithiasis (Hepatotoxicity [12])	HepSE_bilirubinemia (Hepatotoxicity [13])	HepSE_liver fatty (Hepatotoxicity [14])	other results
COc1ccc([C@@H]2Sc3ccccc3N(CCN(C)C)C(=O)[C@@H]2OC(C)=O)cc1 [DILTIAZEM]	0	0	0	0	0	0	0	0	0	0	0	0	0	0	–
OCC(S)CS (stereo not drawn) [DIMERCAPROL]	–	–	–	–	–	–	–	–	–	–	–	–	–	–	HepSE_hepatic necrosis (Hepatotoxicity [1]; Liver): 0; HepSE_hepatitis (Hepatotoxicity [2]; Liver): 0; HepSE_cholecystitis (Hepatotoxicity [3]; Liver): 0; HepSE_Combined Scores (Hepatotoxicity [4]; Liver): 0; HepSE_liver disease (Hepatotoxicity [5]; Liver): 0; HepSE_hepatic failure (Hepatotoxicity [6]; Liver): 0; HepSE_liver function tests abnormal (Hepatotoxicity [7]; Liver): 0; HepSE_cirrhosis (Hepatotoxicity [8]; Liver): 0; HepSE_hepatomegaly (Hepatotoxicity [9]; Liver): 0; HepSE_jaundice (Hepatotoxicity [10]; Liver): 0; HepSE_elevated liver function tests (Hepatotoxicity [11]; Liver): 0; HepSE_cholelithiasis (Hepatotoxicity [12]; Liver): 0; HepSE_bilirubinemia (Hepatotoxicity [13]; Liver): 0; HepSE_liver fatty (Hepatotoxicity [14]; Liver): 0
CCCCC[C@H](O)/C=C/[C@H]1[C@H](O)CC(=O)[C@@H]1C/C=C\CCCC(=O)O [DINOPROSTONE]	0	0	0	0	0	0	0	0	0	0	0	0	0	0	–
CNCC(O)c1ccc(OC(=O)C(C)(C)C)c(OC(=O)C(C)(C)C)c1 (stereo not drawn) [DIPIVEFRIN]	0	0	0	0	0	0	0	0	0	0	0	0	0	0	–
CC(C)N(CCC(C(N)=O)(c1ccccc1)c1ccccn1)C(C)C (stereo not drawn) [DISOPYRAMIDE]	0	0	0	1	0	0	0	0	0	1	0	0	0	0	–
CC(CCc1ccc(O)cc1)NCCc1ccc(O)c(O)c1 (stereo not drawn) [DOBUTAMINE]	0	0	0	0	0	0	0	0	0	0	0	0	0	0	–
CC(=O)O[C@@]12CO[C@@H]1C[C@H](O)[C@@]1(C)C(=O)[C@H](O)C3=C(C)[C@@H](OC(=O)[C@H](O)[C@@H](NC(=O)OC(C)(C)C)c4ccccc4)C[C@@](O)([C@@H](OC(=O)c4ccccc4)[C@H]21)C3(C)C.O.O.O [DOCETAXEL]	0	1	0	6	0	1	1	0	0	1	1	0	1	0	–
CCCCCCCCCCCCCCCCCCCCCCO [DOCOSANOL]	0	0	0	0	0	0	0	0	0	0	0	0	0	0	–
CN(CCOc1ccc(NS(C)(=O)=O)cc1)CCc1ccc(NS(C)(=O)=O)cc1 [DOFETILIDE]	0	0	0	0	0	0	0	0	0	0	0	0	0	0	–
O=C(O[C@@H]1C[C@@H]2C[C@H]3C[C@H](C1)N2CC3=O)c1c[nH]c2ccccc12 [DOLASETRON]	0	0	0	2	1	0	0	0	0	0	0	0	1	0	–
O=c1[nH]c2ccccc2n1CCCN1CCC(n2c(=O)[nH]c3cc(Cl)ccc32)CC1 [DOMPERIDONE]	0	0	0	0	0	0	0	0	0	0	0	0	0	0	–
COc1cc2c(cc1OC)C(=O)C(CC1CCN(Cc3ccccc3)CC1)C2 (stereo not drawn) [DONEPEZIL]	0	1	1	6	0	0	1	0	0	1	0	1	1	0	–
NCCc1ccc(O)c(O)c1 [DOPAMINE]	–	–	–	–	–	–	–	–	–	–	–	–	–	–	HepSE_hepatic necrosis (Hepatotoxicity [1]; Liver): 0; HepSE_hepatitis (Hepatotoxicity [2]; Liver): 0; HepSE_cholecystitis (Hepatotoxicity [3]; Liver): 0; HepSE_Combined Scores (Hepatotoxicity [4]; Liver): 0; HepSE_liver disease (Hepatotoxicity [5]; Liver): 0; HepSE_hepatic failure (Hepatotoxicity [6]; Liver): 0; HepSE_liver function tests abnormal (Hepatotoxicity [7]; Liver): 0; HepSE_cirrhosis (Hepatotoxicity [8]; Liver): 0; HepSE_hepatomegaly (Hepatotoxicity [9]; Liver): 0; HepSE_jaundice (Hepatotoxicity [10]; Liver): 0; HepSE_elevated liver function tests (Hepatotoxicity [11]; Liver): 0; HepSE_cholelithiasis (Hepatotoxicity [12]; Liver): 0; HepSE_bilirubinemia (Hepatotoxicity [13]; Liver): 0; HepSE_liver fatty (Hepatotoxicity [14]; Liver): 0
CCN[C@H]1C[C@H](C)S(=O)(=O)c2sc(S(N)(=O)=O)cc21 [DORZOLAMIDE]	0	0	0	1	0	0	0	0	1	0	0	0	0	0	–
COc1cc(CC2c3c(cc(OC)c(OC)c3OC)CC[N+]2(C)CCCOC(=O)CCC(=O)OCCC[N+]2(C)CCc3cc(OC)c(OC)c(OC)c3C2Cc2cc(OC)c(OC)c(OC)c2)cc(OC)c1OC (stereo not drawn) [DOXACURIUM]	0	0	0	0	0	0	0	0	0	0	0	0	0	0	–
CCN1CC(CCN2CCOCC2)C(c2ccccc2)(c2ccccc2)C1=O (stereo not drawn) [DOXAPRAM]	0	0	0	0	0	0	0	0	0	0	0	0	0	0	–
COc1cc2nc(N3CCN(C(=O)C4COc5ccccc5O4)CC3)nc(N)c2cc1OC (stereo not drawn) [DOXAZOSIN]	0	1	0	4	0	0	1	0	0	1	0	1	0	0	–
